Assay results as given in US20260216169A1, “NAPHTHYLAMIDE COMPOUND, AND PREPARATION METHOD THEREFOR AND USE THEREOF” (SHENZHEN CHIPSCREEN BIOSCIENCES CO., LTD., priority 2022, published 2026).

Columns and labels:
[1] = Brain permeation assay in mice; format: in vivo; details: B/C, mouse, oral; female mice, 5 mg/kg intragastric, 4 h after administration; read-out: Brain permeation (ratio of compound concentration in brain tissue to concentration in plasma)
Description: The objective of this example was to test whether the compounds of the present disclosure are able to cross the blood-brain barrier (BBB). The compounds of the present disclosure were dissolved in a vehicle containing 5% dimethyl sulfoxide, 60% 1,3-propanediol, and 35% purified water, and intragastrically administered to B/C female mice aged 6 weeks (purchased from Guangdong Medical Laboratory Animal Center) at 5 mg/kg. The animals were sacrificed 4 h after the administration, and blood and brain tissue samples were collected. The blood samples were anticoagulated with K2-EDTA and centrifuged at 5000 rpm for 5 min to separate plasma. The brain tissue samples were accurately weighed and homogenized with a certain amount of phosphate-buffered saline (PBS) solution, and the biological samples were stored at −80° C. before analysis. After sample extraction, the compound concentration was determined using a liquid chromatography-tandem mass spectrometry (LC-MS/MS) system. Brain permeation was defined as the ratio of the compound concentration in brain tissue to the concentration in plasma.

[2] = target: T1, VEGFR2 (Homo sapiens, UniProt P35968); assay: HTRF KinEASE test against VEGFR2, reported as relative selectivity IC50-VEGFR2/IC50-Aurora B; format: biochemical; details: ratio of IC50 against VEGFR2 to IC50 against Aurora B
T1 construct: purchased Carna 08-191
T1 sequence (P35968 790-1356 limits assumed): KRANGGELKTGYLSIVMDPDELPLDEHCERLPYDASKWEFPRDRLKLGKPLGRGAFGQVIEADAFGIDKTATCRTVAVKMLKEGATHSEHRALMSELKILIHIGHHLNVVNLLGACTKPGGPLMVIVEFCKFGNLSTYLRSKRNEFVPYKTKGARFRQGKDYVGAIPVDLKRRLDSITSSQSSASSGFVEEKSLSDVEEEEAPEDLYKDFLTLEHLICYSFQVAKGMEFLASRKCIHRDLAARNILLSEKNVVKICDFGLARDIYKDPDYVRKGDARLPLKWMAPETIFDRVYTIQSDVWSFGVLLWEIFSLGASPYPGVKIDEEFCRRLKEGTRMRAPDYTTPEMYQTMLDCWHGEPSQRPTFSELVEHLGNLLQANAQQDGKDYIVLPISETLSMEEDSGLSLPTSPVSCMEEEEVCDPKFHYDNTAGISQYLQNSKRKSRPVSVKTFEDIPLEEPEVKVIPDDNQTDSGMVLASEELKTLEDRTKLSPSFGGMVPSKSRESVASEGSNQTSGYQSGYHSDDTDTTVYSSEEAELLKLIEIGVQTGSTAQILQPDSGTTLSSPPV
Description: (§1) Preparation of working solutions of compounds in DMSO with gradient concentrations: 0.2 mM solutions of the compounds in DMSO were prepared and serially diluted with DMSO to form working solutions with 10 gradient concentrations (corresponding to final compound concentrations of 1000 nM, 300 nM, 100 nM, 30 nM, 10 nM, 3 nM, 1 nM, 0.3 nM, 0.1 nM, and 0.03 nM in the reaction system).
(§2) Tests of inhibitory activity against Aurora B kinase and VEGFR2: The half maximal inhibitory concentrations (IC50) of the compounds against Aurora B kinase and VEGFR2 were determined using HTRF KinEASE-TK kit (Cisbio, Cat #62TKOPEC) and HTRF KinEASE-STK kit (Cisbio, Cat #61ST2BLE). A 2× kinase & Metal solution (Aurora B/Cat #05-102 and VEGFR2/Cat #08-191, both purchased from Carna) and a 2× Substrate & ATP solution (for Aurora B and VEGFR2, substrates S2 and TK were used, respectively) were prepared according to the kit instructions. The working solutions of the test compounds with gradient concentrations were added to a 384-well plate at 25 nL/well, and 2.5 μL of the 2× kinase & Metal solution was added to each well. The plate was sealed with a plate-sealing film, well shaken, centrifuged, and then incubated at 25° C. for 10 min. Then, the 2× Substrate & ATP solution was added at 2.5 μL/well, and the plate was incubated again at 25° C. for 30 min. Finally, a 2× XL665 & Antibody kinase detection reaction solution was added at 5 μL/well. After the plate was incubated at 25° C. for 60 min, the fluorescence signals at wavelengths of 665 nm and 620 nm in each well were measured by a microplate reader.
(§3) The 665 nm/620 nm fluorescence signal ratio (X) of each well was calculated. With the compound-free well as a negative control (Y) and the enzyme-free well as a positive control (Z), the inhibition rate of the compound in each test well against the corresponding kinase was calculated using the formula: inhibition (%)=100%−(X−Z)/(Y−Z)×100%, and the half maximal inhibitory concentration (IC50) of each compound against the corresponding kinase was calculated by GraphPad 7.0 software.

[3] = target: Aurora B kinase (Homo sapiens, UniProt Q96GD4); assay: HTRF KinEASE test of inhibitory activity against Aurora B kinase; format: biochemical; parameters: purchased Carna 05-102; details: Carna kinase, substrate S2
Chain of Aurora B kinase (Q96GD4 whole entry): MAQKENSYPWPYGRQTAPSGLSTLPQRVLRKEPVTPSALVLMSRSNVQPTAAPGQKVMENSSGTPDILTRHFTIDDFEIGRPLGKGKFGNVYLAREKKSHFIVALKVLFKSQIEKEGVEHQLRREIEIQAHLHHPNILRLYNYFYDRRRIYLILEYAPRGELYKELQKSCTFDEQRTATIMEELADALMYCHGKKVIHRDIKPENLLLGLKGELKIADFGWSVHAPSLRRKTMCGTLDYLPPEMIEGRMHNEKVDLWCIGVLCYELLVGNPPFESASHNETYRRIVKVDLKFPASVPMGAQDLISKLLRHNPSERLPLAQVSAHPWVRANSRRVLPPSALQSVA
Chain of Aurora B kinase (Q9NQS7 803-916 partner limits assumed): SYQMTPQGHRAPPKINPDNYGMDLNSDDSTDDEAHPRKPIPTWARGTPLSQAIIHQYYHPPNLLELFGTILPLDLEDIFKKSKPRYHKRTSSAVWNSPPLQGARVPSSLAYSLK
Description: as §1, §2, §3

[4] = tested on: Molt-4 cells; assay: Effects on tumor cell cycle, PI staining and flow cytometry; format: cell-based, human; details: 48 h
Source text: When the activity of Aurora B kinase is inhibited in tumor cells, the arrangement and separation of chromosomes are blocked, leading to cytokinesis failure and the formation of tetraploid or polyploid cells. Moreover, severe genomic instability and mitotic catastrophe result in apoptosis. The intracellular DNA content can be mapped with propidium iodide (PI), a fluorescent dye that specifically binds to nucleic acid, so that cell states can be distinguished into sub-G0/G1 (apoptosis), G0/G1, S, G2/M (tetraploid), and polyploid states.
Experimental process: Molt-4 cells (human acute lymphoblastic leukemia cells, CRL-1582) were purchased from the American Type Culture Collection (ATCC). Molt-4 cells in the logarithmic growth phase were collected from suspension culture and counted. The cells were seeded into a 6-well plate at 10^6 cells/well and cultured overnight under normal conditions. The test compounds were prepared as 1 mM and 3 mM solutions in DMSO, and the solutions in DMSO were diluted 50-fold with culture medium. Finally, the above solutions were added to the culture system in a volume ratio of 1:19, achieving a final compound concentration of 1 μM or 3 μM in each well. After 48 h of incubation, the cells were collected by centrifugation. Each cell sample was resuspended in 300 μL of PBS, and the suspension was added dropwise to 700 μL of pre-cooled absolute ethanol. Then the mixture was gently inverted several times for thorough mixing to complete cell collection and fixation. The samples were left to stand at 4° C. for more than 12 h and then analyzed by flow cytometry.
A working dye solution was prepared by homogeneously mixing PBS, a 10 mg/mL PI stock solution, and a 10 mg/mL RNase A solution in a ratio of 1000:5:2. The fixed cell samples were centrifuged at 4° C. and 1000 rpm for 10 min. The supernatants were completely removed using a pipette, and the cells were washed twice with PBS and resuspended in the above working dye solution at […]. After incubation in a dark place at 37° C. for 30 min, the cells were filtered using a 200-mesh stainless steel strainer, and the filtrate was loaded onto a flow cytometer for cell cycle analysis (10,000 cells counted per sample).
Histograms showing DNA contents were obtained from the flow cytometry analysis, and the cell cycle distribution in each sample was analyzed using the flow cytometry data analysis software FlowJo. The mean (X) and standard deviation (SD) were calculated, and data were represented as X±SD. The apoptosis and the proportions of tetraploid and polyploid cells after Molt-4 cells were treated with different doses of the test compounds are shown in Table 3 below.

Row | Structure (SMILES) | Selectivity for Aurora B IC50-VEGFR2/IC50-Aurora B [2] | IC50 [3] | other results
1 | CCOc1ccc2c(Oc3ccc4c(C(=O)Nc5ccccc5N)cccc4c3)ccnc2c1 [Compound I-1] | – | – | Kp at 4 h [1]: 0.73
2 | CCOc1ccc2c(Oc3ccc4c(C(=O)Nc5ccc(F)cc5N)cccc4c3)ccnc2c1 [Compound I-5] | 49.6 | 2.83 nM | –
3 | CCOc1ccc2c(Oc3ccc4c(C(=O)Nc5ccc(F)c(F)c5N)cccc4c3)ccnc2c1 [Compound I-6] | 18.64 | 3.18 nM | –
4 | CC(C)Oc1ccc2c(Oc3ccc4c(C(=O)Nc5ccccc5N)cccc4c3)ccnc2c1 [Compound I-7] | 0.17 | 417 nM | –
5 | COc1ccc2c(Oc3ccc4c(C(=O)Nc5cc(F)c(F)c(F)c5N)cccc4c3)ccnc2c1 [Compound I-10] | 13.34 | 3.52 nM | –
6 | CCCOc1ccc2c(Oc3ccc4c(C(=O)Nc5ccccc5N)cccc4c3)ccnc2c1 [Compound I-11] | 0.78 | 33.9 nM | –
7 | CCCOc1ccc2c(Oc3ccc4c(C(=O)Nc5ccc(F)cc5N)cccc4c3)ccnc2c1 [Compound I-12] | 5.12 | 19 nM | –
8 | CCCCOc1ccc2c(Oc3ccc4c(C(=O)Nc5ccccc5N)cccc4c3)ccnc2c1 [Compound I-13] | 0.27 | 127 nM | –
9 | CCCCOc1ccc2c(Oc3ccc4c(C(=O)Nc5ccc(C)cc5N)cccc4c3)ccnc2c1 [Compound I-14] | 18.84 | 53.1 nM | –
10 | CCOc1ccc2c(Oc3ccc4c(C(=O)Nc5cc(F)ccc5N)cccc4c3)ccnc2c1 [Compound I-15] | – | – | Kp at 4 h [1]: 0.76
11 | CCOc1cc(F)c2c(Oc3ccc4c(C(=O)Nc5ccccc5N)cccc4c3)ccnc2c1 [Compound I-17] | 8.16 | 4.01 nM | Kp at 4 h [1]: 0.6
12 | CCOc1cc(F)c2c(Oc3ccc4c(C(=O)Nc5cccc(F)c5N)cccc4c3)ccnc2c1 [Compound I-18] | 9.75 | 6.89 nM | –
13 | CCOc1cc(F)c2c(Oc3ccc4c(C(=O)Nc5ccc(F)c(F)c5N)cccc4c3)ccnc2c1 [Compound I-19] | 9.08 | 5.62 nM | –
14 | CCOc1cc(F)c2c(Oc3ccc4c(C(=O)Nc5cc(F)ccc5N)cccc4c3)ccnc2c1 [Compound I-20] | – | – | Kp at 4 h [1]: 0.67

Second part, led by results:

Row | Selectivity for Aurora B IC50-VEGFR2/IC50-Aurora B [2] | IC50 [3] | Structure (SMILES) | other results
15 | 12.27 | 2.12 nM | O=C(NC1CC(F)(F)C1)c1cccc2cc(Oc3ccnc4cc(OCCOC(F)F)ccc34)ccc12 [Compound I-21] | –
16 | 9.49 | 1.24 nM | COCCOc1ccc2c(Oc3ccc4c(C(=O)NC5CC(F)(F)C5)cccc4c3)ccnc2c1 [Compound I-23] | –
17 | 109.61 | 1.7 nM | COCCOc1ccc2c(Oc3ccc4c(C(=O)NC5CC6(COC6)C5)cccc4c3)ccnc2c1 [Compound I-24] | –
18 | 38.05 | 1.55 nM | COCCOc1ccc2c(Oc3ccc4c(C(=O)NC5CC6(CCC6)C5)cccc4c3)ccnc2c1 [Compound I-25] | –
19 | 10.23 | 0.896 nM | COCCOc1ccc2c(Oc3ccc4c(C(=O)NC5CC(F)C5)cccc4c3)ccnc2c1 (stereo not drawn) [Compound I-27] | –
20 | 9.68 | 4.12 nM | Nc1c(F)cccc1NC(=O)c1cccc2cc(Oc3ccnc4cc(OCCOC(F)F)cc(F)c34)ccc12 [Compound I-28] | –
21 | 8.07 | 2.01 nM | Nc1c(NC(=O)c2cccc3cc(Oc4ccnc5cc(OCCF)ccc45)ccc23)ccc(F)c1F [Compound I-32] | –
22 | 376.79 | 2.65 nM | O=C(NC1CC(F)(F)C1)c1cccc2cc(Oc3ccnc4cc(OCCF)ccc34)ccc12 [Compound I-33] | –
23 | 9.55 | 5.26 nM | O=C(NC1CCCCC1)c1cccc2cc(Oc3ccnc4cc(OCCF)ccc34)ccc12 [Compound I-35] | –
24 | 7.75 | 2.92 nM | COc1cc(F)c2c(Oc3ccc4c(C(=O)Nc5ccc(F)c(Cl)c5N)cccc4c3)ccnc2c1 [Compound I-36] | –
25 | 14.19 | 2.63 nM | COc1cc(F)c2c(Oc3ccc4c(C(=O)Nc5ccc(F)c(F)c5N)cccc4c3)ccnc2c1 [Compound I-37] | Apoptosis (%) DNA < 2N ([4]; dose 1 μM): 22.55 ± 0.21%; Polyploid (%) DNA > 4N ([4]; dose 1 μM): 55.25 ± 5.02%; Tetraploid (%) DNA = 4N ([4]; dose 1 μM): 4.68 ± 3.46%; Total (apoptosis + tetraploid + polyploid) ([4]; dose 1 μM): 82.48; Apoptosis (%) DNA < 2N ([4]; dose 3 μM): 23.75 ± 2.33%; Polyploid (%) DNA > 4N ([4]; dose 3 μM): 53.75 ± 4.17%; Tetraploid (%) DNA = 4N ([4]; dose 3 μM): 5.75 ± 3.15%; Total (apoptosis + tetraploid + polyploid) ([4]; dose 3 μM): 83.25; Kp at 4 h [1]: 0.6
26 | 127.51 | 2.22 nM | O=C(NC1CC(F)(F)C1)c1cccc2cc(Oc3ccnc4cc(OCC(F)F)ccc34)ccc12 [Compound I-41] | –
27 | 13.9 | 3.86 nM | CN(C)CCOc1ccc2c(Oc3ccc4c(C(=O)NC5CC(F)(F)C5)cccc4c3)ccnc2c1 [Compound I-42] | –
28 | 12.14 | 6.71 nM | CCOc1ccc2c(Oc3ccc4c(C(=O)Nc5cc(F)c(F)c(F)c5N)cccc4c3)ccnc2c1 [Compound I-44] | –
